Data taken from patent US9248163B2, “Insulin-like growth factor binding protein 7 for treatment of cancer” (University of Massachusetts, priority 2007, dated 2016).

How the values were obtained:
primary melanocytes = test: Proliferation assay of primary melanocytes (trypan blue exclusion); type: cell-based, human; conditions: 14 days after treatment
Description: For the proliferation assay shown in FIG. 1B, 1×10^4 cells stably expressing an shRNA were cultured in 12-well plate format, infected with BRAFV600E-expressing retrovirus and after 14 days stained with crystal violet. For all other quantitative proliferation assays, cell viability was measured by trypan blue exclusion test at the time point indicated in the relevant figure legend. Values were expressed as percent cell growth, as described in the relevant figure legend. For the proliferation assays shown in FIG. 2A, CM was replenished every 3 days, and proliferation was measured after a total of 14 days of CM treatment. Unless otherwise stated, rIGFBP7 was added to the culture medium at a concentration of 10 μg/ml.
To confirm that IGFBP7 could block cellular proliferation, purified recombinant IGFBP7 (rIGFBP7) was purified from baculovirus-infected insect cells. […] Collectively, the results of FIGS. 2A-2D indicate that following expression of BRAFV600E, melanocytes synthesize and secrete increased amounts of IGFBP7, which then acts through an autocrine/paracrine pathway to induce senescence.

melanocytes = test: Senescence-associated β-galactosidase assay; type: cell-based, human; conditions: rIGFBP7 10 μg/ml for 14 days; growth-arrested cells
Description: Melanocytes infected with a retrovirus expressing either vector or BRAFV600E, or melanocytes treated with BRAFV600E/melanocyte CM or rIGFBP7 (10 μg/ml) for 14 days were washed twice with PBS (5 minutes at room temperature), fixed with 3% formaldehyde (5 minutes at room temperature), and washed three more times with PBS. Cells were then incubated at 37° C. (0% CO2) overnight in SA-β-Gal stain solution (1 mg/mL X-Gal (5-bromo-4-chloro-3-indoyl b-D-galactoside), 40 mM citric acid/sodium phosphate (pH 6.0), 5 mM potassium ferrocyanide, 5 mM potassium ferricyanide, 150 mM NaCl and 2 mM MgCl2). Cells were washed with PBS and visualized on a Zeiss Axiovert™ 40 CFL microscope. Images were captured using QCapture™ Pro version 5 software (QImaging Corporation).

[1] = tested on: human melanoma cell lines; test: Apoptosis assay (Annexin V-PE) in melanoma cells; type: cell-based
Description: PFF fibroblasts or melanocytes or shRNA knockdown derivatives (5×10^5 cells) were infected with BRAFV600E-expressing retrovirus, and 4 days later the total cell population was stained for Annexin V-PE (BD Biosciences). To monitor apoptosis in melanoma cells following rIGFBP7 treatment, 5×10^5 cells were treated with rIGFBP7 (10 μg/ml) for 24 hours and stained for Annexin V-PE.
Finally, it was determined whether apoptosis was dependent upon the continual presence of rIGFBP7 or was irreversible following transient exposure to rIGFBP7. SK-MEL-28 cells were incubated with rIGFBP7 for various lengths of time, following which the cells were washed and cultured in medium lacking rIGFBP7, and apoptosis was quantitated after 24 hours. The results, shown in FIG. 3H, indicate that following 6 hours of incubation with rIGFBP7, the cells were irreversibly committed to apoptosis, which occurred even following removal of rIGFBP7.

SK-MEL-28 cells = test: Immunoblot analysis of SMARCB1, BNIP3L and activated caspase 3; type: cell-based, human; conditions: 10 μg/ml
Description: (§1) To prepare cell extracts, cells were lysed in Laemmli buffer; for phospho-proteins, cells were lysed in the presence of a phosphatase inhibitor cocktail (Sigma). To prepare conditioned media, cells were grown in Opti-MEM™ (Invitrogen) for 24 hours, and media was harvested and concentrated using Centricon™ plus 20 tubes (Millipore). Conditioned media was normalized to cell number prior to loading the gel. For the experiments shown in FIGS. 3D and 4C, rIGFBP7 was added to the culture medium at a concentration of 10 μg/ml. For the MEK/RAF inhibitor experiment of FIG. 4D, SK-MEL-28 cells were treated with 2 μg/ml or 10 μg/ml rIGFBP7, 20 μM or 40 μM of the MEK inhibitor PD98054 (Calbiochem), or 5 nM or 10 nM the RAF inhibitor GW5074 (Sigma) for 24 hours prior to harvesting cells. Proteins were resolved by SDS-PAGE and transferred to nitrocellulose. Blots were probed with the following antibodies: α-p16 (Abcam), α-acetylated H3K9 (Upstate), α-IGFBP7 (Santa Cruz), α-SMARCB1 (Abnova), α-BNIP3L (Proscience), α-BRAFV600E (Santa Cruz), α-cleaved caspase-3 p11 (Santa Cruz), α-β-actin (Sigma), α-phospho-ERK (Cell Signaling) or α-ERK (Cell Signaling).

[2] = tested on: BRAF-MEK-ERK signaling in SK-MEL-28 cells; test: Immunoblot analysis of BRAF-MEK-ERK signaling (phospho-ERK, activated MEK1/2, RKIP); type: cell-based, human
Description: as §1
To test this idea, rIGFBP7 was added to BRAFV600E-positive SK-MEL-28 melanoma cells, and the levels of total and activated ERK (phospho-ERK) were analyzed.

[3] = tested on: SK-MEL-28 (BRAFV600E-positive) tumors; test: Tumor formation assay, SK-MEL-28 xenograft in nude mice; type: in vivo, athymic Balb/c (nu/nu) mice
Description: (§2) 5×10^6 SK-MEL-28 or SK-MEL-31 cells were suspended in 100 μl of serum-free DMEM and injected subcutaneously into the right flank of athymic Balb/c (nu/nu) mice (Taconic). Three, six, and nine days later, the mice were injected at the tumor site with either 20 μg of rIGBP7 in a total volume of 100 μl or, as a control, PBS. Tumor dimensions were measured every three days and tumor volume was calculated using the formula π/6×(length)×(width)^2. For the systemic administration experiments, 5×10^6 SK-MEL-28 or SK-MEL-31 cells were injected into the flanks of nude mice and when tumors reached a size of 100 mm3, 100 μg rIGFBP7 in a total volume of 100 μl was delivered by tail vein injection at days 6, 9, and 12. Tumor dimensions were measured every three days. Animal experiments were performed in accordance with the Institutional Animal Care and Use Committee (IACUC) guidelines.

[4] = tested on: SK-MEL-31 (wild type BRAF) tumors; test: Tumor formation assay, SK-MEL-31 xenograft in nude mice; type: in vivo, athymic Balb/c (nu/nu) mice
Description: as §2

[5] = tested on: A375(Fluc-IRES-GFP) cells; test: Pulmonary metastasis model, A375(Fluc-IRES-GFP) cells by tail vein injection
Description: For these experiments, A375(Fluc-IRES-GFP) cells were used, which are a highly metastatic, BRAF-positive human melanoma cell line stably expressing an Fluc-IRES-GFP reporter construct (where Fluc is the firefly luciferase gene, IRES is an internal ribosomal entry site and GFP is green fluorescent protein) (Collisson et al., 2003, Cancer Res., 63:5669-5673). The presence of Fluc-IRES-GFP enables tumor growth to be quantified over time in live animals by serial bioluminescent optical imaging.
Two treatment regimens were tested. In one set of experiments, administration of IGFBP7 was initiated 3 days after injection of A375-Fluc cells, at which time metastatic disease would be significant (FIG. 12A). In these experiments, 7×10^5 A375(Fluc-IRES-GFP) cells were injected into the tail vein of 10 athymic Balb/c (nu/nu) mice (Taconic). At days 3, 6 and 9, mice were injected via the tail vein with either 100 μg purified, recombinant IGFBP7 (n=5 mice) or, as a control, phosphate buffered saline (PBS) (n=5 mice). On day 6, mice were analyzed for quantitation of metastatic tumor burden by using a Xenogen brand bioluminescent imaging system. […] Mice were monitored daily for viability over 30 days, and the ability of systemically administered IGFBP7 to suppress metastatic disease was assessed by survival assays (Kaplan-Meier analysis).
In a second set of experiments, administration of IGFBP7 was initiated both before and shortly after injection of A375(Fluc-IRES-GFP) cells, to test the ability of IGFBP7 to function prophylactically to prevent metastasis and/or treat early metastatic disease (FIG. 13A). In these experiments, 100 μg purified, recombinant IGFBP7 (or, as a control, PBS) was injected into the tail vein of mice (n=5 mice for each group). One day later, mice were injected with 7×10^5 A375(Fluc-IRES-GFP) cells, followed by injection of 100 μg on days 3 and 6. Mice were monitored daily for viability over 30 days, and the ability of systemically administered IGFBP7 to suppress metastatic disease was assessed by survival assays (Kaplan-Meier analysis).

[6] = injected at the tumor site, 20 μg, days 3, 6 and 9
[7] = systemic, 100 μg by tail vein injection at days 6, 9 and 12

“rIGFBP7: purified recombinant human IGFBP7, C-terminal Flag-tagged, from baculovirus-infected Sf9 insect cells” was tested, and the “proliferation of primary melanocytes” value (primary melanocytes) was “blocked proliferation of primary melanocytes in a dose-dependent manner”, the “senescence-associated β-galactosidase staining” value (melanocytes) was “stained positively” and the “incubation time after which cells were irreversibly committed to apoptosis” value ([1]; SK-MEL-28 cells, washed, apoptosis quantitated after 24 hours) was 6 h. The surviving senescent cells ([1]; melanoma cell lines with activating BRAF mutation) was “undetectable”, the apoptosis ([1]; melanoma cell lines with activating BRAF mutation, 10 μg/ml, 24 hours) was “strongly induced apoptosis” and the “apoptosis by caspase 3 activation” value (SK-MEL-28 cells) was “apoptosis occurred as evidenced by caspase 3 activation”. For the same substance, the “expression of SMARCB1 and BNIP3L” value (SK-MEL-28 cells) was “significantly increased”, the “growth factor-induced ERK activation” value [2] was “blocked” and the “RAF inhibitory protein (RKIP) expression” value ([2]; SK-MEL-28 cells) was “upregulation”. For the same substance, the “levels of activated MEK1/2” value ([2]; SK-MEL-28 cells) was “decreased levels”, the phospho-ERK level ([2]; SK-MEL-28 cells, 24 hours, 0.2-10 μg/ml) was “dose-dependent loss of phospho-ERK” and the tumor growth [3, 6] was “substantially suppressed growth”. For the same substance, the “TUNEL labeling of tumors” value ([3]; mice treated with rIGFBP7) was “positive”, the tumor growth [3, 7] was “completely suppressed growth” and the “suppression of tumor growth, dose dependence” value ([3]; systemic, 2, 20, 50, 100 or 250 μg, tumor volume at day 21) was “dose-dependent”. For the same substance, the adverse effects ([3]; systemic, concentrations higher than required for inhibition of tumor growth) was “without apparent adverse effects”, the tumor growth [4, 6] was “no effect” and the tumor growth [4, 7] was “unaffected”. For the same substance, the “survival (Kaplan-Meier)” value ([5]; 100 μg one day before cell injection and on days 3 and 6, PBS mice died within 18 days) was “still viable at day 30”, the “survival (Kaplan-Meier)” value ([5]; 100 μg tail vein at days 3, 6 and 9 after cell injection, control mice died at 20 days) was “still viable at day 30” and the “lung metastasis by bioluminescent imaging” value ([5]; 100 μg tail vein from day 3, imaged on day 6) was “no evidence of lung metastasis”.
